From PubChem BioAssay (NCI)
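Tested at 5 concentrations; 48 h exposure; 96-well plates; endpoints linearly interpolated, else capped at highest concentration. GI50 marks 50% less growth. TGI marks complete inhibition of growth.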

Experiments:
Assay in all cases: inhibition of tumour cell growth, NCI panel, 48 h
786-0 renal = test system: 786-0 renal
A498 renal = test system: A498 renal
A549 NSCLC = test system: A549 NSCLC
ACHN renal = test system: ACHN renal
BT-549 breast = test system: BT-549 breast
CAKI-1 renal = test system: CAKI-1 renal
CCRF-CEM leukemia = test system: CCRF-CEM leukemia
COLO 205 colon = test system: COLO 205 colon
DU-145 prostate = test system: DU-145 prostate
EKVX NSCLC = test system: EKVX NSCLC
HCC-2998 colon = test system: HCC-2998 colon
HCT-116 colon = test system: HCT-116 colon
HCT-15 colon = test system: HCT-15 colon
HL-60(TB) leukemia = test system: HL-60(TB) leukemia
HOP-62 NSCLC = test system: HOP-62 NSCLC
HOP-92 NSCLC = test system: HOP-92 NSCLC
HS 578T breast = test system: HS 578T breast
HT29 colon = test system: HT29 colon
IGROV1 ovarian = test system: IGROV1 ovarian
K-562 leukemia = test system: K-562 leukemia
KM12 colon = test system: KM12 colon
LOX IMVI melanoma = test system: LOX IMVI melanoma
M14 melanoma = test system: M14 melanoma
MALME-3M melanoma = test system: MALME-3M melanoma
MCF7 breast = test system: MCF7 breast
MDA-MB-231 breast = test system: MDA-MB-231 breast
MDA-MB-435 = test system: MDA-MB-435
MDA-MB-468 breast = test system: MDA-MB-468 breast
MOLT-4 leukemia = test system: MOLT-4 leukemia
NCI-H226 lung = test system: NCI-H226 lung
NCI-H23 lung = test system: NCI-H23 lung
NCI-H460 lung = test system: NCI-H460 lung
NCI-H522 lung = test system: NCI-H522 lung
NCI/ADR-RES ovarian = test system: NCI/ADR-RES ovarian
OVCAR-3 ovarian = test system: OVCAR-3 ovarian
OVCAR-4 ovarian = test system: OVCAR-4 ovarian
OVCAR-5 ovarian = test system: OVCAR-5 ovarian
OVCAR-8 ovarian = test system: OVCAR-8 ovarian
PC-3 prostate = test system: PC-3 prostate
RPMI-8226 leukemia = test system: RPMI-8226 leukemia
RXF 393 renal = test system: RXF 393 renal
SF-268 CNS = test system: SF-268 CNS
SF-295 CNS = test system: SF-295 CNS
SF-539 CNS = test system: SF-539 CNS
SK-MEL-2 melanoma = test system: SK-MEL-2 melanoma
SK-MEL-28 melanoma = test system: SK-MEL-28 melanoma
SK-MEL-5 melanoma = test system: SK-MEL-5 melanoma
SK-OV-3 ovarian = test system: SK-OV-3 ovarian
SN12C renal = test system: SN12C renal
SNB-19 CNS = test system: SNB-19 CNS
SNB-75 CNS = test system: SNB-75 CNS
SR leukemia = test system: SR leukemia
SW-620 colon = test system: SW-620 colon
T-47D breast = test system: T-47D breast
TK-10 renal = test system: TK-10 renal
U251 CNS = test system: U251 CNS
UACC-257 melanoma = test system: UACC-257 melanoma
UACC-62 melanoma = test system: UACC-62 melanoma
UO-31 renal = test system: UO-31 renal

SMILES: OCCCNc1oc(-c2ccccc2)nc1[P+](c1ccccc1)(c1ccccc1)c1ccccc1
- GI50 (786-0 renal): 5.72 µM
- TGI (786-0 renal): 20 µM
- GI50 (A498 renal): 10.4 µM
- TGI (A498 renal): 23 µM
- GI50 (A549 NSCLC): 5.68 µM
- TGI (A549 NSCLC): 20.3 µM
- GI50 (ACHN renal): 10.2 µM
- TGI (ACHN renal): 24.8 µM
- GI50 (BT-549 breast): 1.87 µM
- TGI (BT-549 breast): 6.03 µM
- GI50 (CAKI-1 renal): 4.28 µM
- TGI (CAKI-1 renal): 21.7 µM
- GI50 (CCRF-CEM leukemia): 2.46 µM
- TGI (CCRF-CEM leukemia): 13.5 µM
- GI50 (COLO 205 colon): 1.26 µM
- TGI (COLO 205 colon): 4.41 µM
- GI50 (DU-145 prostate): 3.86 µM
- TGI (DU-145 prostate): 16.4 µM
- GI50 (EKVX NSCLC): 2.81 µM
- TGI (EKVX NSCLC): 13.6 µM
- GI50 (HCC-2998 colon): 2.95 µM
- TGI (HCC-2998 colon): 12.8 µM
- GI50 (HCT-116 colon): 2.52 µM
- TGI (HCT-116 colon): 15.9 µM
- GI50 (HCT-15 colon): 13.7 µM
- TGI (HCT-15 colon): 28.1 µM
- GI50 (HL-60(TB) leukemia): 0.586 µM
- TGI (HL-60(TB) leukemia): 2.9 µM
- GI50 (HOP-62 NSCLC): 3.25 µM
- TGI (HOP-62 NSCLC): 14.5 µM
- GI50 (HOP-92 NSCLC): 1.24 µM
- TGI (HOP-92 NSCLC): 5.68 µM
- GI50 (HS 578T breast): 2.25 µM
- TGI (HS 578T breast): 8.21 µM
- GI50 (HT29 colon): 2.45 µM
- TGI (HT29 colon): 13.3 µM
- GI50 (IGROV1 ovarian): 2.14 µM
- TGI (IGROV1 ovarian): 7.01 µM
- GI50 (K-562 leukemia): 1.46 µM
- TGI (K-562 leukemia): 11.7 µM
- GI50 (KM12 colon): 2.13 µM
- TGI (KM12 colon): 7.15 µM
- GI50 (LOX IMVI melanoma): 3.12 µM
- TGI (LOX IMVI melanoma): 12.2 µM
- GI50 (M14 melanoma): 3.13 µM
- TGI (M14 melanoma): 17.7 µM
- GI50 (MALME-3M melanoma): 1.57 µM
- TGI (MALME-3M melanoma): 5.38 µM
- GI50 (MCF7 breast): 1.95 µM
- TGI (MCF7 breast): 8.73 µM
- GI50 (MDA-MB-231 breast): 1.72 µM
- TGI (MDA-MB-231 breast): 4.84 µM
- GI50 (MDA-MB-435): 2.26 µM
- TGI (MDA-MB-435): 10 µM
- GI50 (MDA-MB-468 breast): 0.337 µM
- TGI (MDA-MB-468 breast): 1.97 µM
- GI50 (MOLT-4 leukemia): 3.01 µM
- TGI (MOLT-4 leukemia): 12.1 µM
- GI50 (NCI-H226 lung): 2.44 µM
- TGI (NCI-H226 lung): 9.8 µM
- GI50 (NCI-H23 lung): 3.02 µM
- TGI (NCI-H23 lung): 12.5 µM
- GI50 (NCI-H460 lung): 2.61 µM
- TGI (NCI-H460 lung): 11.3 µM
- GI50 (NCI-H522 lung): 1.76 µM
- TGI (NCI-H522 lung): 7.82 µM
- GI50 (NCI/ADR-RES ovarian): > 100 µM
- TGI (NCI/ADR-RES ovarian): > 100 µM
- GI50 (OVCAR-3 ovarian): 1.44 µM
- TGI (OVCAR-3 ovarian): 8.15 µM
- GI50 (OVCAR-4 ovarian): 2.37 µM
- TGI (OVCAR-4 ovarian): 15.7 µM
- GI50 (OVCAR-5 ovarian): 3.42 µM
- TGI (OVCAR-5 ovarian): 15.5 µM
- GI50 (OVCAR-8 ovarian): 2.84 µM
- TGI (OVCAR-8 ovarian): 10.7 µM
- GI50 (PC-3 prostate): 1.6 µM
- TGI (PC-3 prostate): 9 µM
- GI50 (RPMI-8226 leukemia): 0.41 µM
- TGI (RPMI-8226 leukemia): 10.2 µM
- GI50 (RXF 393 renal): 1.23 µM
- TGI (RXF 393 renal): 5.79 µM
- GI50 (SF-268 CNS): 2.76 µM
- TGI (SF-268 CNS): 11.8 µM
- GI50 (SF-295 CNS): 3.02 µM
- TGI (SF-295 CNS): 10.5 µM
- GI50 (SF-539 CNS): 3.86 µM
- TGI (SF-539 CNS): 14.4 µM
- GI50 (SK-MEL-2 melanoma): 2.49 µM
- TGI (SK-MEL-2 melanoma): 6.46 µM
- GI50 (SK-MEL-28 melanoma): 2.09 µM
- TGI (SK-MEL-28 melanoma): 11 µM
- GI50 (SK-MEL-5 melanoma): 1.15 µM
- TGI (SK-MEL-5 melanoma): 2.38 µM
- GI50 (SK-OV-3 ovarian): 2.34 µM
- TGI (SK-OV-3 ovarian): 8.1 µM
- GI50 (SN12C renal): 2.61 µM
- TGI (SN12C renal): 7.59 µM
- GI50 (SNB-19 CNS): 2.15 µM
- TGI (SNB-19 CNS): 7.25 µM
- GI50 (SNB-75 CNS): 1.3 µM
- TGI (SNB-75 CNS): 5.38 µM
- GI50 (SR leukemia): 3.43 µM
- TGI (SR leukemia): 16.1 µM
- GI50 (SW-620 colon): 3.29 µM
- TGI (SW-620 colon): 15.2 µM
- GI50 (T-47D breast): 1.26 µM
- TGI (T-47D breast): 6.72 µM
- GI50 (TK-10 renal): 3.62 µM
- TGI (TK-10 renal): 16.3 µM
- GI50 (U251 CNS): 2.67 µM
- TGI (U251 CNS): 11.7 µM
- GI50 (UACC-257 melanoma): 1.98 µM
- TGI (UACC-257 melanoma): 6.1 µM
- GI50 (UACC-62 melanoma): 1.38 µM
- TGI (UACC-62 melanoma): 3.85 µM
- GI50 (UO-31 renal): 15.7 µM
- TGI (UO-31 renal): 33.2 µM
